Tests used:
Type in all cases: in vivo
[1] = test system: redroot pigweed (Amaranthus retroflexus, AMARE); experiment: Pre-emerge test, greenhouse herbicide activity screening; details: pre-emerge, 14 days after application, rating scale 0-100
Method in brief: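 Compounds in acetone were track-sprayed at 15-1000 g ai/ha (187 l/ha) on sandy loam pots: pre-emerge one day after seeding, post-emerge at 2-3 leaf stage with 0.25% v/v non-ionic surfactant. Phytotoxicity was rated 14 days later on a 0 (no damage) to 100 (complete death) scale.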

[2] = test system: barnyardgrass (Echinochloa crus-galli, ECHCG); experiment: as above; details: pre-emerge, 14 days after application, rating scale 0-100
Method in brief: (§1)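 Rating: 0–100 visual injury, 14 DAA. Application: acetone, 187 l/ha, 15–1000 g ai/ha, flat-fan track sprayer with nozzle 40–45 cm above soil or canopy. Post-emerge runs used 0.25% v/v surfactant on 2–3 leaf plants.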

[3] = test system: green foxtail (Setaria viridis, SETVI); experiment: as above; details: pre-emerge, 14 days after application, rating scale 0-100
Method in brief: as §1

[4] = test system: ivyleaf morningglory (Ipomoea hederacea, IPOHE); experiment: as above; details: pre-emerge, 14 days after application, rating scale 0-100
Method in brief: as §1

[5] = test system: johnsongrass (Sorghum halepense, SORHA); experiment: as above; details: pre-emerge, 14 days after application, rating scale 0-100
Method in brief: as §1

[6] = test system: lambsquarters (Chenopodium album, CHEAL); experiment: as above; details: pre-emerge, 14 days after application, rating scale 0-100
Method in brief: as §1

[7] = test system: large crabgrass (Digitaria sanguinalis, DIGSA); experiment: as above; details: pre-emerge, 14 days after application, rating scale 0-100
Method in brief: as §1

[8] = test system: sicklepod (Cassia obtusifolia, CASOB); experiment: as above; details: pre-emerge, 14 days after application, rating scale 0-100
Method in brief: as §1

[9] = test system: velvetleaf (Abutilon theophrasti, ABUTH); experiment: as above; details: pre-emerge, 14 days after application, rating scale 0-100
Method in brief: as §1

[10] = test system: field corn (Zea mays L., var. Dekalb 535, CORN); experiment: Pre-emerge test, crop safety; details: pre-emerge, 14 days after application, rating scale 0-100
Method in brief: (§2)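 Fourteen days after spraying, crop and weed injury was graded visually from 0, no effect, to 100, every plant dead. Test substances were dissolved in acetone and applied at 15–1000 g ai/ha with a flat-fan nozzle. Application was either pre-emergence, one day after sowing, or post-emergence at the 2–3 leaf stage.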

[11] = test system: upland rice (Oryza sp., var. Tebonnet, RICE); experiment: Pre-emerge test, crop safety; details: pre-emerge, 14 days after application, rating scale 0-100
Method in brief: as §2

[12] = test system: barnyardgrass (Echinochloa crus-galli, ECHCG); experiment: Post-emerge test, greenhouse herbicide activity screening; details: post-emerge, 14 days after application, rating scale 0-100
Method in brief: (§3)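 Compounds in acetone were track-sprayed at 15–1000 g ai/ha: pre-emergence onto soil sown the previous day, then top-watered to incorporate and later bottom-watered; post-emergence onto 2–3 leaf plants with 0.25% v/v surfactant, bottom-watered only. Ratings on a 0–100 phytotoxicity scale were taken at day 14.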

[13] = test system: green foxtail (Setaria viridis, SETVI); experiment: as above; details: post-emerge, 14 days after application, rating scale 0-100
Method in brief: as §3

[14] = test system: ivyleaf morningglory (Ipomoea hederacea, IPOHE); experiment: as above; details: post-emerge, 14 days after application, rating scale 0-100
Method in brief: as §3

[15] = test system: johnsongrass (Sorghum halepense, SORHA); experiment: as above; details: post-emerge, 14 days after application, rating scale 0-100
Method in brief: as §3

[16] = test system: lambsquarters (Chenopodium album, CHEAL); experiment: as above; details: post-emerge, 14 days after application, rating scale 0-100
Method in brief: as §3

[17] = test system: large crabgrass (Digitaria sanguinalis, DIGSA); experiment: as above; details: post-emerge, 14 days after application, rating scale 0-100
Method in brief: as §3

[18] = test system: redroot pigweed (Amaranthus retroflexus, AMARE); experiment: as above; details: post-emerge, 14 days after application
Method in brief: as §3

[19] = test system: sicklepod (Cassia obtusifolia, CASOB); experiment: as above; details: post-emerge, 14 days after application, rating scale 0-100
Method in brief: as §3

[20] = test system: velvetleaf (Abutilon theophrasti, ABUTH); experiment: as above; details: post-emerge, 14 days after application, rating scale 0-100
Method in brief: as §3

[21] = test system: field corn (Zea mays L., var. Dekalb 535, CORN); experiment: Post-emerge test, crop safety; details: post-emerge, 14 days after application, rating scale 0-100
Method in brief: (§4)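 Plants grown in 10 cm pots of sandy loam mix received acetone-dissolved compounds through a moving flat-fan nozzle. Doses ranged from 15 to 1000 g ai/ha. Pre-emerge pots were seeded one day earlier, post-emerge pots 8–21 days earlier. Fourteen days on, each pot was graded 0–100 for damage.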

[22] = test system: upland rice (Oryza sp., var. Tebonnet, RICE); experiment: Post-emerge test, crop safety; details: post-emerge, 14 days after application, rating scale 0-100
Method in brief: as §4

For COc1c(Cl)cc(F)c(-n2c(=O)cc(C(F)(F)F)n(C)c2=O)c1SCCO [17-5], the “phytotoxicity rating AMARE” value ([1]; 63 g ai/ha) was 80, the “phytotoxicity rating AMARE” value ([1]; 250 g ai/ha) was 100 and the “phytotoxicity rating ECHCG” value ([2]; 63 g ai/ha) was 0. For the same compound, the “phytotoxicity rating ECHCG” value ([2]; 250 g ai/ha) was 0, the “phytotoxicity rating SETVI” value ([3]; 63 g ai/ha) was 0 and the “phytotoxicity rating SETVI” value ([3]; 250 g ai/ha) was 50. The “phytotoxicity rating IPOHE” value ([4]; 63 g ai/ha) was 30, the “phytotoxicity rating IPOHE” value ([4]; 250 g ai/ha) was 35 and the “phytotoxicity rating SORHA” value ([5]; 63 g ai/ha) was 0. The “phytotoxicity rating SORHA” value ([5]; 250 g ai/ha) was 20, the “phytotoxicity rating CHEAL” value ([6]; 63 g ai/ha) was 90 and the “phytotoxicity rating CHEAL” value ([6]; 250 g ai/ha) was 100. For the same compound, the “phytotoxicity rating DIGSA” value ([7]; 63 g ai/ha) was 0, the “phytotoxicity rating DIGSA” value ([7]; 250 g ai/ha) was 60 and the “phytotoxicity rating CASOB” value ([8]; 63 g ai/ha) was 0. For the same compound, the “phytotoxicity rating CASOB” value ([8]; 250 g ai/ha) was 30, the “phytotoxicity rating ABUTH” value ([9]; 63 g ai/ha) was 60 and the “phytotoxicity rating ABUTH” value ([9]; 250 g ai/ha) was 100. The “phytotoxicity rating CORN” value ([10]; 63 g ai/ha) was 0, the “phytotoxicity rating CORN” value ([10]; 250 g ai/ha) was 0 and the “phytotoxicity rating RICE” value ([11]; 63 g ai/ha) was 0. For the same compound, the “phytotoxicity rating RICE” value ([11]; 250 g ai/ha) was 10, the “Post-emerge Herbicidal Activity ECHCG (phytotoxicity rating)” value ([12]; 63 g ai/ha) was 0 and the “Post-emerge Herbicidal Activity ECHCG (phytotoxicity rating)” value ([12]; 250 g ai/ha) was 0. The “Post-emerge Herbicidal Activity SETVI (phytotoxicity rating)” value ([13]; 63 g ai/ha) was 0, the “Post-emerge Herbicidal Activity SETVI (phytotoxicity rating)” value ([13]; 250 g ai/ha) was 0 and the “Post-emerge Herbicidal Activity IPOHE (phytotoxicity rating)” value ([14]; 63 g ai/ha) was 30. The “Post-emerge Herbicidal Activity IPOHE (phytotoxicity rating)” value ([14]; 250 g ai/ha) was 70, the “Post-emerge Herbicidal Activity SORHA (phytotoxicity rating)” value ([15]; 63 g ai/ha) was 0 and the “Post-emerge Herbicidal Activity SORHA (phytotoxicity rating)” value ([15]; 250 g ai/ha) was 0. The “Post-emerge Herbicidal Activity CHEAL (phytotoxicity rating)” value ([16]; 63 g ai/ha) was 40, the “Post-emerge Herbicidal Activity CHEAL (phytotoxicity rating)” value ([16]; 250 g ai/ha) was 80 and the “Post-emerge Herbicidal Activity DIGSA (phytotoxicity rating)” value ([17]; 63 g ai/ha) was 0. For the same compound, the “Post-emerge Herbicidal Activity DIGSA (phytotoxicity rating)” value ([17]; 250 g ai/ha) was 0, the “Post-emerge Herbicidal Activity AMARE (phytotoxicity rating)” value ([18]; 63 g ai/ha, rating scale 0-100 (0 no damage, 100 complete death)) was 10 and the “Post-emerge Herbicidal Activity AMARE (phytotoxicity rating)” value ([18]; 250 g ai/ha, rating scale 0-100) was 40. The “Post-emerge Herbicidal Activity CASOB (phytotoxicity rating)” value ([19]; 63 g ai/ha) was 10, the “Post-emerge Herbicidal Activity CASOB (phytotoxicity rating)” value ([19]; 250 g ai/ha) was 20 and the “Post-emerge Herbicidal Activity ABUTH (phytotoxicity rating)” value ([20]; 63 g ai/ha) was 50. For the same compound, the “Post-emerge Herbicidal Activity ABUTH (phytotoxicity rating)” value ([20]; 250 g ai/ha) was 80, the “Post-emerge Herbicidal Activity CORN (crop damage rating)” value ([21]; 63 g ai/ha) was 0 and the “Post-emerge Herbicidal Activity CORN (crop damage rating)” value ([21]; 250 g ai/ha) was 10. The “Post-emerge Herbicidal Activity RICE (crop damage rating)” value ([22]; 63 g ai/ha) was 0 and the “Post-emerge Herbicidal Activity RICE (crop damage rating)” value ([22]; 250 g ai/ha) was 0.

From patent publication US6355799B1, “Substituted benzene compounds, process for their preparation, and herbicidal and defoliant compositions containing them” (ISK Americas Incorporated, priority 1997, dated 2002)
